According to patent US20140329872A1, “TREATMENT OF HYPERTENSION AND/OR PREVENTION OR TREATMENT OF HEART FAILURE IN A MAMMAL RECEIVING ANTI-COAGULANT THERAPY” (NOVARTIS AG, priority 2010, published 2014):
Read-outs that look alike come from different tables or passages of the source.

Legend:
[1] = for AUCinf, adjusted geometric mean / AUClast, adjusted geometric mean / Cmax, adjusted geometric mean: healthy subjects, N=25; for pharmacokinetic interaction with LCZ696 (steady-state concentration-time profiles): in the presence and absence of LCZ696, FIG. 1a, 1b
From the text: This study employs a single blind, randomized, two-period, crossover design. All subjects are blinded to the treatment to eliminate study bias. Each subject participates in a screening period, two baseline periods, and two treatment periods. A washout period of at least 10 days but not more than 14 days separates each treatment period.
This study employs a single blind, randomized, two-period, crossover design. Twenty six healthy male and female subjects are enrolled to ensure at least 20 completers. Each subject participates in a screening period (day-21 to day-2), two baseline periods (day-1), two treatment periods, a washout period of at least 10 days separating the treatment periods, and a study completion evaluation. Subjects undergo routine safety testing during screening, including physical, routine hematology, biochemistry, urinalysis, viral serology screening, pregnancy testing (female subjects), urine drug screening, alcohol screening, standard 12-lead electrocardiogram (ECG), and vital signs assessments to establish eligibility.
Subjects are randomized into the following two treatment sequences during treatment Period 1 and Period 2 as shown.
Treatment Period 1: Those subjects who successfully pass screening (Days-21 to -2) report to the study center in the morning of the day prior to the initial dosing (Day-1) for admission into the study center, at which time they undergo baseline safety evaluations as conducted during screening (except viral serology). All baseline safety evaluation results should be available prior to first dosing. Subjects are domiciled for at least 11 days during each treatment period.
Serial samples for drug/placebo pharmacokinetics are collected on Day 4 for up to 12 hours post morning dose.
In the evening prior to each of full pharmacokinetic (PK) assessment days (Day 4 & day 5) the subjects fast overnight (10-12 hours) prior to dosing, and continue to fast until 4 hours post-dose. On Day 1, 2, 3, 6, 7, 8, 9, and 10 the subjects are dosed following an overnight fast of 10-12 hours and receive breakfast 30 minutes post-dose, and evening snacks are provided 30 minutes after evening dosing on all dosing days.
Treatment Period 2: Subjects are required to return to the study center following a washout period of at least 10 days for period 2 baseline evaluation (Day-1). All study related activities including pharmacokinetic sampling for all treatments follow the same schedule as in Period 1.

[2] = test system: extrinsic pathway of coagulation
From the text: The prothrombin time (PT) and its derived measures of prothrombin ratio (PR) and international normalized ratio (INR) are measures of the extrinsic pathway of coagulation. […] The prothrombin time is the time it takes blood plasma to clot after addition of tissue factor (obtained from animals). The result (in seconds) of the prothrombin time performed in a normal individual will vary depending the analytical system and method used. This is due to differences between different batches of manufacturer's tissue factor used to perform the test.
The international normalized ratio (INR) was devised to standardize the results. The INR is the ratio of a patient's prothrombin time (PT) to a normal (control) sample, raised to the power of the International Sensitivity Index (ISI) value for the analytical system used.

[3] = LCZ696 200 mg b.i.d. + Warfarin 25 mg single dose on Day 5
[4] = Placebo + Warfarin 25 mg single dose on Day 5
[5] = healthy subjects, Warfarin 25 mg single dose with LCZ696 200 mg b.i.d. or with placebo, N=25

Compound | AUCinf, adjusted geometric mean [1, 3] [ng·h/mL] | AUClast, adjusted geometric mean [1, 3] [ng·h/mL] | Cmax, adjusted geometric mean [1, 3] [ng/mL] | AUCinf, adjusted geometric mean [1, 4] [ng·h/mL] | AUClast, adjusted geometric mean [1, 4] [ng·h/mL] | Cmax, adjusted geometric mean [1, 4] [ng/mL] | pharmacokinetic interaction with LCZ696 (steady-state concentration-time profiles) [1] | Mean INR (AUCINR/144), geometric mean [2, 5] | Mean Prothrombin time (AUCPT/144), geometric mean [2, 5] [s] | Peak INR, geometric mean [2, 5] | Peak prothrombin time, geometric mean [2, 5] [s] | interaction with LCZ696 as indicated by the INR ([2]; warfarin (racemic) administration, FIG. 3) | interaction with LCZ696 as indicated by prothrombin times ([2]; warfarin (racemic) in the presence and absence (placebo) of LCZ696, FIG. 2)
CC(=O)C[C@@H](c1ccccc1)c1c(O)c2ccccc2oc1=O [S-Warfarin] | 50677.20 | 46647.81 | 1344.45 | 52027.31 | 47570.37 | 1414.20 | lack of pharmacokinetic interaction |  |  |  |  |  | 
CC(=O)CC(c1ccccc1)c1c(O)c2ccccc2oc1=O (racemic) [Warfarin, (RS)-4-hydroxy-3-(3-oxo-1-phenylbutyl)-2H-chromen-2-one] |  |  |  |  |  |  |  | 1.30 | 16.51 | 1.90 | 22.00 | lack of interaction | lack of interaction
CC(=O)C[C@H](c1ccccc1)c1c(O)c2ccccc2oc1=O [R-Warfarin] | 64891.96 | 58796.87 | 1325.29 | 66153.48 | 59534.11 | 1373.71 | lack of pharmacokinetic interaction |  |  |  |  |  | 
